Experimental data: PMC5382172 (Frontiers in Molecular Neuroscience, 2017)
Several values for one entry are separate records, joined by “and”; a condition that tells them apart may be missing. Equal entries are not always repeated.

Experiments:
Assay type in all cases: cell-based
GluClαY194R/βWT receptor = molecular target: T1, GluClαY194R/βWT receptor (Caenorhabditis elegans, UniProt G5EBR3+Q17328, Y194R); assay: Whole-cell patch clamp in CHO cells, GluClαY194R/βWT receptor; conditions: 500 nM IVM, -60 mV
T1 construct: entry codes of the full-length subunits used in this study; expressed in transfected cells; host or cells: CHO cells, transient co-transfection 1:1, pcDNA3.1
T1 sequence (G5EBR3 21-461 Y194R): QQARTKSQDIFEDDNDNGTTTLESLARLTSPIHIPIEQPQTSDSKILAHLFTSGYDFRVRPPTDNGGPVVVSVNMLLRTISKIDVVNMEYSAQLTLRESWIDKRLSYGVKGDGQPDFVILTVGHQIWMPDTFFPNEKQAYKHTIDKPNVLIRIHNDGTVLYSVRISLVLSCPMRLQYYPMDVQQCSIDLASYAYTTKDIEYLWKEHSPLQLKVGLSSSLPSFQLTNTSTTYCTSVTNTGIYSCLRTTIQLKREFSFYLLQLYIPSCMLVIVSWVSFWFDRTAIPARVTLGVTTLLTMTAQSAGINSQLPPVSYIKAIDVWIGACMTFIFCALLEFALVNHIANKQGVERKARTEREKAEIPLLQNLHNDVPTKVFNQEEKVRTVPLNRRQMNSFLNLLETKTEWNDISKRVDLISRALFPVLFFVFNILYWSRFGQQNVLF
T1 sequence (Q17328 23-434): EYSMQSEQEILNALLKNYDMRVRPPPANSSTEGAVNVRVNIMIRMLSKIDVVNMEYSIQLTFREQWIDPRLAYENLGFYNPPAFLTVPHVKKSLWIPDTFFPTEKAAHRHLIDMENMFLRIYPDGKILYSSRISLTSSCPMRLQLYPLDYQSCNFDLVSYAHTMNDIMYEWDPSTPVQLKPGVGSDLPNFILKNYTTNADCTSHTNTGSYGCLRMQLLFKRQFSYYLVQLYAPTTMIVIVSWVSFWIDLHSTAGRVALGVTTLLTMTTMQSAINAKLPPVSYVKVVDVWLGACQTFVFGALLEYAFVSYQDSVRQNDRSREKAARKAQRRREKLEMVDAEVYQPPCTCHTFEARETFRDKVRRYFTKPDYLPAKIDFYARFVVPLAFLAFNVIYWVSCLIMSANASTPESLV
Description: (§1) Chinese hamster ovary (CHO) cells were cultured as previously (Bar-Lev et al., [2011]) in Dulbecco’s Modified Eagle Medium (DMEM) containing 10% fetal calf serum, 2 mM glutamax, 100 Units/ml penicillin G and 100 μg/ml streptomycin, and grown in 5% CO2 at 37°C under 90%–95% humidity. The cells were seeded on glass coverslips (13-mm diameter) placed in a 24-multiwell plate. […] For the expression of GluCl receptors, cells were transiently co-transfected with pcDNA3.1 plasmids containing the ORFs of interest using transit-LT1 transfection reagent (Mirus, Madison, WI, USA), according to the manufacturer’s protocol. The cDNAs encoding the C. elegans GluClα (GLC-1) or its mutated versions and the GluClβ (GLC-2) subunits (200–600 ng per well) were used at 1:1 ratio. The pIRES-CD8 plasmid (200 ng per well) was added to enable the visualization of the expressing cells by beads coated with anti-CD8 antibodies (Invitrogen). […]
(§2) Whole-cell patch clamp recordings were performed as described previously (Bar-Lev et al., [2011]) in CHO cells that were prepared as detailed above. […] The currents were measured with an Axopatch 200B patch-clamp amplifier (Molecular Devices, Sunnyvale, CA, USA) and a Digidata 1440A interface (Molecular Devices). […]

[1] = molecular target: T2, GluClα[SSS→GSD]/βWT receptor (Caenorhabditis elegans, UniProt G5EBR3+Q17328, S236G/S238D); assay: Whole-cell patch clamp in CHO cells, GluClα[SSS→GSD]/βWT receptor; conditions: 500 nM IVM, -60 mV
T2 construct: entry codes of the full-length subunits used in this study; expressed in transfected cells; host or cells: CHO cells, transient co-transfection 1:1, pcDNA3.1
T2 sequence (Q17328 23-434): as above
T2 sequence (G5EBR3 21-461 S236G/S238D): as the sequence (G5EBR3 21-461 Y194R) above, with R174Y, S216G, S218D counted along it
Description: as §1, §2

GluClαF276A/βWT receptor = molecular target: T3, GluClαF276A/βWT receptor (Caenorhabditis elegans, UniProt G5EBR3+Q17328, F276A); assay: Whole-cell patch clamp in CHO cells, GluClαF276A/βWT receptor
T3 construct: entry codes of the full-length subunits used in this study; expressed in transfected cells; host or cells: CHO cells, transient co-transfection, pcDNA3.1 (X-tremeGENE HP for the IVM-EC50 experiments)
T3 sequence (G5EBR3 21-461 F276A): as the sequence (G5EBR3 21-461 Y194R) above, with R174Y, F256A counted along it
T3 sequence (Q17328 23-434): as the sequence (Q17328 23-434) above
Description: Chinese hamster ovary (CHO) cells were cultured as previously (Bar-Lev et al., [2011]) in Dulbecco’s Modified Eagle Medium (DMEM) containing 10% fetal calf serum, 2 mM glutamax, 100 Units/ml penicillin G and 100 μg/ml streptomycin, and grown in 5% CO2 at 37°C under 90%–95% humidity. The cells were seeded on glass coverslips (13-mm diameter) placed in a 24-multiwell plate. […] For the expression of GluCl receptors, cells were transiently co-transfected with pcDNA3.1 plasmids containing the ORFs of interest using transit-LT1 transfection reagent (Mirus, Madison, WI, USA), according to the manufacturer’s protocol. The cDNAs encoding the C. elegans GluClα (GLC-1) or its mutated versions and the GluClβ (GLC-2) subunits (200–600 ng per well) were used at 1:1 ratio. The pIRES-CD8 plasmid (200 ng per well) was added to enable the visualization of the expressing cells by beads coated with anti-CD8 antibodies (Invitrogen). For high-level expression of the GluClαF276A/βWT mutant receptor in experiments assigned to determine its IVM-EC50, we used the X-tremeGENE HP DNA Transfection Reagent (Roche Life Science). Recordings were performed 72–96 h following the transfection.
Whole-cell patch clamp recordings were performed as described previously (Bar-Lev et al., [2011]) in CHO cells that were prepared as detailed above. The normal external solution (NES) contained (in millimolar): 140 NaCl, 2.8 KCl, 2 CaCl2, 2 MgCl2, 10 glucose and 10 HEPES, adjusted to pH 7.35 with NaOH (310 mOsm/L). The pipette solution contained (in millimolar): 130 KCl, 4 MgCl2, 4 Na2ATP, 1 EGTA and 10 HEPES, adjusted to pH 7.35 with KOH (290 mOsm/L). The osmolarity of these solutions was maintained by adding sucrose. The electrode resistance was 6–10 MΩ when filled with the pipette solution. External solutions were applied onto the cell by using the VC-77SP fast-step system (Warner Instruments, Hamden, CT, USA) combined with N2 pressure of 3–4 psi to produce laminar flow of the external solution onto the patched cell. All measurements were performed at room temperature. The currents were measured with an Axopatch 200B patch-clamp amplifier (Molecular Devices, Sunnyvale, CA, USA) and a Digidata 1440A interface (Molecular Devices). Acquisition of recording data was performed at 2.5 kHz and recordings were low-pass filtered at 1 kHz, through a four-pole Bessel filter. The pClamp 10 software (Molecular Devices) was used for data acquisition. […] Five-hundred milliseconds after the application started (which is also after the current reached to its peak at −60 mV), the voltage was stepped from −60 mV to −80 mV for 50 ms followed by a 250-ms-long voltage ramp ranging from −80 mV to +80 mV.
Dose-response curves were fitted to the data points by a nonlinear regression using the Hill Equation 1,

GluClαF276W/βWT receptor = molecular target: T4, GluClαF276W/βWT receptor (Caenorhabditis elegans, UniProt G5EBR3+Q17328, F276W); assay: Whole-cell patch clamp in CHO cells, GluClαF276W/βWT receptor; conditions: 500 nM IVM, -60 mV
T4 construct: entry codes of the full-length subunits used in this study; expressed in transfected cells; host or cells: CHO cells, transient co-transfection 1:1, pcDNA3.1
T4 sequence (G5EBR3 21-461 F276W): as the sequence (G5EBR3 21-461 Y194R) above, with R174Y, F256W counted along it
T4 sequence (Q17328 23-434): as the sequence (Q17328 23-434) above
Description: as §1, §2

CC[C@H](C)[C@H]1O[C@]2(CC[C@@H]1C)C[C@@H]1C[C@@H](C/C=C(\C)[C@@H](O[C@H]3C[C@H](OC)[C@@H](O[C@H]4C[C@H](OC)[C@@H](O)[C@H](C)O4)[C@H](C)O3)[C@@H](C)/C=C/C=C3\CO[C@@H]4[C@H](O)C(C)=C[C@@H](C(=O)O1)[C@]34O)O2 [IVM, ivermectin]
IVM (500 nM) Amplitude (GluClαY194R/βWT receptor): 2.1 ± 0.5 nA | IVM (500 nM) Amplitude [1]: 1.8 ± 0.4 nA | increase in IVM-EC50 relative to GluClαWT/βWT (GluClαF276A/βWT receptor): 20 fold | Fold decrease in Glu-EC50 observed after pre-exposure to IVM (GluClαF276A/βWT receptor; 50 nM IVM): ~ 8.5 fold | magnitude of the IVM-elicited current (GluClαF276A/βWT receptor; 50 nM IVM, -60 mV, just before the second application of Glu): 70 pA | decrease of IVM/Glu response ratio compared to GluClαWT/βWT (GluClαF276A/βWT receptor; 500 nM IVM (-60 mV) over Glu-EC50 concentration (+60 mV) peak currents): ~ 7 fold | fold-potentiation of Glu-elicited response by IVM (GluClαF276A/βWT receptor; 1 mM Glu before and after exposure to 50 nM IVM): ~ 18 fold and 17.9 ± 1.8 fold | IVM (500 nM) Amplitude (GluClαF276A/βWT receptor; CHO cells, 500 nM IVM, -60 mV): 0.2 ± 0.03 nA | Hill coefficient of activation by IVM (GluClαF276A/βWT receptor; cumulative IVM concentrations, -60 mV): 3.5 and 3.5 ± 0.40 | EC50 (GluClαF276A/βWT receptor; cumulative IVM concentrations, -60 mV, high-level expression (X-tremeGENE HP)): 802 nM | IVM (500 nM) Amplitude (GluClαF276W/βWT receptor): 1.2 ± 0.2 nA
